Experimental data as given in patent US8952024B2, “Herbicidal pyrimidone derivatives” (E I du Pont de Nemours and Company, priority 2009, dated 2015).

Assays:
Assay in all cases: Test B pre-/postemergence plant response
Assay type in all cases: in vivo
[1] = tested on: giant foxtail (Setaria faberii)
How it was run: (§1)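 Response scores were assigned visually after 13 to 15 days in a greenhouse, comparing treated pots with controls on a 0–100 scale where 100 denotes complete control. Preemergence treatments went onto freshly seeded loam/sand soil; postemergence treatments onto plants 2 to 18 cm tall.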

[2] = tested on: yellow nutsedge (Cyperus esculentus)
How it was run: as §1

[3] = tested on: green foxtail (Setaria viridis)
How it was run: as §1

[4] = tested on: blackgrass (Alopecurus myosuroides)
How it was run: as §1

[5] = tested on: lambsquarters (Chenopodium album)
How it was run: as §1

[6] = tested on: Italian ryegrass (Lolium multiflorum)
How it was run: as §1

[7] = tested on: downy bromegrass (Bromus tectorum)
How it was run: as §1

[8] = tested on: Surinam grass (Brachiaria decumbens)
How it was run: as §1

[9] = tested on: woolly cupgrass (Eriochloa villosa)
How it was run: as §1

[10] = tested on: morningglory (Ipomoea coccinea)
How it was run: as §1

corn (Zea mays) = tested on: corn (Zea mays)
How it was run: as §1

[11] = tested on: bermudagrass (Cynodon dactylon)
How it was run: as §1

[12] = tested on: large crabgrass (Digitaria sanguinalis)
How it was run: as §1

[13] = 31 g ai/ha, postemergence, scale 0 to 100, 0 is no effect, 100 is complete control
[14] = 62 g ai/ha, postemergence, 0 is no effect, 100 is complete control, 13 to 15 days
[15] = Postemergence, 125 g ai/ha, scale 0 to 100 (0 no effect, 100 complete control)
[16] = Postemergence, 250 g ai/ha, scale 0 to 100 (0 no effect, 100 complete control)
[17] = Preemergence, 31 g ai/ha, scale 0 to 100 (0 no effect, 100 complete control)
[18] = Preemergence, 62 g ai/ha, scale 0 to 100 (0 no effect, 100 complete control)
[19] = Preemergence, 125 g ai/ha, scale 0 to 100, 0 no effect, 100 complete control
[20] = Preemergence, 250 g ai/ha, 0 to 100 scale

## COCCn1c(-c2cc(F)cc(F)c2)ncc(C(=O)C2=C(O)CCCC2=O)c1=O [Compound 119]
[1]; [13]
  Plant response rating, Foxtail, Giant: 75
[1]; [14]
  Foxtail, Giant plant response rating (0 to 100 scale): 85
[1]; [15]
  Plant response rating, Foxtail, Giant: 95
[1]; [16]
  Plant response rating, Foxtail, Giant: 95
[1]; [17]
  Plant response rating, Foxtail, Giant: 55
[1]; [18]
  Plant response rating, Foxtail, Giant: 85
[1]; [19]
  Plant response rating, Foxtail, Giant: 95
[1]; [20]
  Foxtail, Giant plant response rating: 100
[2]; [13]
  Plant response rating, Nutsedge, Yellow: 10
[2]; [14]
  Nutsedge, Yellow plant response rating (0 to 100 scale): 50
[2]; [15]
  Plant response rating, Nutsedge, Yellow: 65
[2]; [16]
  Plant response rating, Nutsedge, Yellow: 75
[2]; [17]
  Plant response rating, Nutsedge, Yellow: 75
[2]; [18]
  Plant response rating, Nutsedge, Yellow: 95
[2]; [19]
  Plant response rating, Nutsedge, Yellow: 98
[2]; [20]
  Nutsedge, Yellow plant response rating: 98
[3]; [13]
  Plant response rating, Foxtail, Green: 85
[3]; [14]
  Foxtail, Green plant response rating (0 to 100 scale): 90
[3]; [15]
  Plant response rating, Foxtail, Green: 95
[3]; [16]
  Plant response rating, Foxtail, Green: 100
[3]; [17]
  Plant response rating, Foxtail, Green: 95
[3]; [18]
  Plant response rating, Foxtail, Green: 100
[3]; [19]
  Plant response rating, Foxtail, Green: 100
[3]; [20]
  Foxtail, Green plant response rating: 100
[4]; [13]
  Plant response rating, Blackgrass: 5
[4]; [14]
  Blackgrass plant response rating (0 to 100 scale): 20
[4]; [15]
  Plant response rating, Blackgrass: 50
[4]; [16]
  Plant response rating, Blackgrass: 50
[4]; [17]
  Plant response rating, Blackgrass: 30
[4]; [18]
  Plant response rating, Blackgrass: 30
[4]; [19]
  Plant response rating, Blackgrass: 50
[4]; [20]
  Blackgrass plant response rating: 70
[5]; [13]
  Plant response rating, Lambsquarters: 85
[5]; [14]
  Lambsquarters plant response rating (0 to 100 scale): 100
[5]; [15]
  Plant response rating, Lambsquarters: 100
[5]; [16]
  Plant response rating, Lambsquarters: 100
[5]; [17]
  Plant response rating, Lambsquarters: 95
[5]; [18]
  Plant response rating, Lambsquarters: 98
[5]; [19]
  Plant response rating, Lambsquarters: 100
[5]; [20]
  Lambsquarters plant response rating: 100
[6]; [14]
  Ryegrass, Italian plant response rating (0 to 100 scale): 30
[6]; [15]
  Plant response rating, Ryegrass, Italian: 60
[6]; [16]
  Plant response rating, Ryegrass, Italian: 85
[6]; [17]
  Plant response rating, Ryegrass, Italian: 100
[6]; [18]
  Plant response rating, Ryegrass, Italian: 100
[6]; [19]
  Plant response rating, Ryegrass, Italian: 100
[6]; [20]
  Ryegrass, Italian plant response rating: 100
[7]; [13]
  Plant response rating, Bromegrass, Downy: 10
[7]; [14]
  Bromegrass, Downy plant response rating (0 to 100 scale): 30
[7]; [15]
  Plant response rating, Bromegrass, Downy: 60
[7]; [16]
  Plant response rating, Bromegrass, Downy: 85
[7]; [17]
  Plant response rating, Bromegrass, Downy: 0
[7]; [18]
  Plant response rating, Bromegrass, Downy: 50
[7]; [19]
  Plant response rating, Bromegrass, Downy: 55
[7]; [20]
  Bromegrass, Downy plant response rating: 55
[8]; [14]
  Surinam Grass plant response rating (0 to 100 scale): 85
[8]; [15]
  Plant response rating, Surinam Grass: 95
[8]; [16]
  Plant response rating, Surinam Grass: 98
[8]; [17]
  Plant response rating, Surinam Grass: 90
[8]; [18]
  Plant response rating, Surinam Grass: 98
[8]; [19]
  Plant response rating, Surinam Grass: 100
[8]; [20]
  Surinam Grass plant response rating: 100
[9]; [13]
  Plant response rating, Cupgrass, Woolly: 75
[9]; [14]
  Cupgrass, Woolly plant response rating (0 to 100 scale): 98
[9]; [15]
  Plant response rating, Cupgrass, Woolly: 98
[9]; [16]
  Plant response rating, Cupgrass, Woolly: 100
[9]; [17]
  Plant response rating, Cupgrass, Woolly: 65
[9]; [18]
  Plant response rating, Cupgrass, Woolly: 75
[9]; [19]
  Plant response rating, Cupgrass, Woolly: 95
[9]; [20]
  Cupgrass, Woolly plant response rating: 100
[10]; [13]
  Plant response rating, Morningglory: 10
[10]; [14]
  Morningglory plant response rating (0 to 100 scale): 60
[10]; [15]
  Plant response rating, Morningglory: 95
[10]; [16]
  Plant response rating, Morningglory: 95
[10]; [17]
  Plant response rating, Morningglory: 60
[10]; [18]
  Plant response rating, Morningglory: 95
[10]; [19]
  Plant response rating, Morningglory: 95
[10]; [20]
  Morningglory plant response rating: 95
Corn (Zea mays); [13]
  Plant response rating, Corn: 20
Corn (Zea mays); [14]
  Corn plant response rating (0 to 100 scale): 45
Corn (Zea mays); [15]
  Plant response rating, Corn: 60
Corn (Zea mays); [16]
  Plant response rating, Corn: 70
Corn (Zea mays); [17]
  Plant response rating, Corn: 0
Corn (Zea mays); [18]
  Plant response rating, Corn: 40
Corn (Zea mays); [19]
  Plant response rating, Corn: 50
Corn (Zea mays); [20]
  Corn plant response rating: 50
[11]; [13]
  Plant response rating, Bermudagrass: 75
[11]; [14]
  Bermudagrass plant response rating (0 to 100 scale): 98
[11]; [15]
  Plant response rating, Bermudagrass: 98
[11]; [16]
  Plant response rating, Bermudagrass: 98
[11]; [17]
  Plant response rating, Bermudagrass: 100
[11]; [18]
  Plant response rating, Bermudagrass: 100
[11]; [19]
  Plant response rating, Bermudagrass: 100
[11]; Preemergence, 250 g ai/ha, 0 to 100 scale, 0 no effect, 100 complete control
  Bermudagrass plant response rating: 100
[12]; [13]
  Plant response rating, Crabgrass, Large: 75
[12]; [14]
  Crabgrass, Large plant response rating (0 to 100 scale): 85
[12]; [15]
  Plant response rating, Crabgrass, Large: 95
[12]; [16]
  Plant response rating, Crabgrass, Large: 95
[12]; [17]
  Plant response rating, Crabgrass, Large: 100
[12]; [18]
  Plant response rating, Crabgrass, Large: 100
[12]; [19]
  Plant response rating, Crabgrass, Large: 100
[12]; [20]
  Crabgrass, Large plant response rating: 100
